Article PMC3006138, “Fexinidazole – A New Oral Nitroimidazole Drug Candidate Entering Clinical Development for the Treatment of Sleeping Sickness” (PLoS Neglected Tropical Diseases, 2010)

Columns and labels:
[1] = Mouse single-dose plasma pharmacokinetics; assay type: in vivo; conditions: for AUC(0-t) / Cmax / AUC(0-inf) / Tmax / half-life / bioavailability / AUC0–24: plasma; for bioavailability: fexinidazole 25 mg/kg po vs 1 mg/kg iv
Protocol: Blood samples were taken via into heparinised collection tubes and, following centrifugation, plasma was removed and stored frozen until required for assay.
All PK evaluations were carried out using validated high performance liquid chromatography (HPLC) and LC-MS assays, as per standard operating procedures of the laboratories involved.
One mouse PK and brain sampling study was carried out by BioDynamics Ltd., Rushden, UK, according to internal Standard Operating Procedures as a non-GLP regulated study, and animals were maintained as required by the “Code of practice for the housing and care of animals used in scientific procedures” (Home Office, London, 1989).
BioDynamics Study No: DND/01
Two groups of female mice were dosed as follows:
Number Treatment Dose (mg/kg) Route
All doses are expressed as free base
Intravenous doses were administered into a lateral tail vein using an appropriately sized syringe and 25G needle and the oral formulation by oral gavage using a polypropylene gavage tube. All doses were given as a single bolus dose at a constant dose volume of 10.0 mL/kg.
1.6 Blood sample collection
At each sampling time point, three animals in each treatment group were deeply anaesthetised using isoflurane and blood samples (approximately 1 mL) taken into individual heparinised tubes by cardiac puncture, following which the animals were killed by cervical fracture. Samples were collected at the following times post-dose:
Following collection, the blood samples were centrifuged (approximately 10000 g, 2 min at 4 °C) and the plasma retained as one aliquot at approximately -70°C prior to analysis of test material concentrations at BioDynamics by LC-MS/MS.
1.7 Collection of terminal brain samples
Following collection of the terminal blood sample the cranium of each mouse was carefully opened and the brain removed. Excess blood was washed from the brain with distilled water and any excess fluid blotted on absorbent paper. The brain was then snap frozen using liquid nitrogen and placed into a suitably labelled container and stored frozen at approximately -70°C pending analysis.
All of the plasma samples together with the brains from the 15 minute time point were analysed for concentrations of the test material and its sulfone and sulfoxide metabolites. In addition the brains from the 5 and 30 minute time points for the intravenously treated and the 30 and 60 minute time points for the orally treated animals were analysed for concentrations of Fexinidazole and its sulfone and sulfoxide metabolites using an LC-MS/MS method developed at BioDynamics.
All samples were treated as temperature sensitive. Blood samples were collected onto wet ice, followed by centrifugation at 4 °C. Plasma and brain samples were snap frozen on dry ice (plasma) or liquid nitrogen (brains) prior to long term storage at less than -70 °C pending analysis.
Summed transitions were used to enhance sensitivity. No instability of the test materials was noted during the course of analysis or on re-injection of the samples into the mass spectrometer under the […]
3. Pharmacokinetic analysis
The plasma concentration vs time curves obtained following intravenous and oral administration of the test compounds to female mice were analysed using WinNonLin (Version 4.1, Scientific Consulting
Inc. USA). The kinetic data were characterised by a non-compartmental analysis (NCA).
The following pharmacokinetic parameters were derived from the profiles: maximum peak plasma concentration (Cmax); the time of maximum observed concentration (Tmax); the terminal half life (T½), and area under the plasma concentration curve (AUC), 3.1.1 Area under the curve (AUC)
The AUC was determined using the linear/log trapezoidal method. A value of zero was used for any plasma concentrations recorded as below the limits of quantification (LLOQ). The AUCinf (observed) was calculated as the area under the curve from the time of dosing extrapolated to time infinity based on the observed concentrations. The AUClast was also determined. […]

[2] = Mouse pharmacokinetics after 5-day oral dosing; conditions: for AUC0-tlast / AUC0-∞: fexinidazole 200 mg/kg/day po, Day 5
Protocol: The study was conducted according to the study protocol [1].
gavage daily for 5 consecutive days at a dose of 200 mg/kg in a 5 % tween 80/ 0.5 %
Formulation Preparation and Concentration Check
were prepared according to the procedure already developed [2]; a sufficient volume of each
suspension was prepared in order to support the 5-day repeated oral administration. The
suspensions were stored at +4°C. The supportive stability data for the Fexinidazole
suspension after 7 days at +4°C was performed.
a specific, not validated, HPLC-UV method [2]. Three samples were analyzed for each
Sample Collection and Handling
About 0.05-0.07 mL of blood/sampling time were taken from the saphenous vein using
heparinized tubes (pre-cooled in an ice/water bath) and were centrifuged at 10000g for 3
minutes at 4°C. The separated plasma was stored at -80°C until analysis. Blood was taken at
validated LC-MS-MS methods.
Pharmacokinetic Calculations
Pharmacokinetic evaluation was carried out using a non-compartmental approach with the
aid of the Watson package (v. 6.4.0.04, Thermo Fisher Scientific, Waltham, MA, USA).
For the calculations, pre-dose concentrations of both compounds were set equal to zero.
After both compounds, on Day 5, Cmax and tmax were read from the raw plasma data as the
coordinates of the highest measured concentration. The area under plasma concentration vs.
time curve to finite time, AUC0-t(last), was determined by the linear trapezoidal rule up to the
last detectable concentration. The half-life of the terminal phase, t1/2,z, was determined by
linear regression analysis of the natural-log concentration vs. time curve, where t1/2,z =
ln(2)/slope of the regression line.
Descriptive statistics (mean ± SD, %CV) were reported for plasma concentrations and
pharmacokinetic parameters sorted by compound.
reported to three significant figures.
Plasma concentrations of sulphoxide and sulphone Fexinidazole metabolites were determined
by a LC-MS-MS method. The lower limit of the bioanalytical method was 5 ng/mL (run 1)
(v. 6.4.0.04, Thermo Fisher Scientific, Waltham, MA, USA).
Pharmacokinetic evaluations of the sulphone and sulphoxide metabolites were carried out
using non-compartmental approach with the aid of the Watson package (v. 6.4.0.04, Thermo
Fisher Scientific, Waltham, MA, USA).
After both doses, for the calculations, the pre-dose concentrations of the metabolites were set
Cmax and tmax were read from raw data as the coordinates of the highest measured

[3] = female, NMRI, mouse, iv, 1 mg/kg, fexinidazole 1 mg/kg iv, read-out: AUC0-24
[4] = female, NMRI, mouse, iv, 1 mg/kg, fexinidazole 1 mg/kg iv, read-out: Cmax
[5] = female, NMRI, mouse, po, 25 mg/kg, fexinidazole 25 mg/kg po, female NMRI mice, read-out: Cmax
[6] = female, NMRI, mouse, po, 25 mg/kg, fexinidazole 25 mg/kg po, read-out: AUC0–24
[7] = female, NMRI, mouse, fexinidazole 1 mg/kg iv
[8] = female, NMRI, mouse, fexinidazole 25 mg/kg po
[9] = male, NMRI, mouse, plasma, po, 200 mg/kg/day

Structure (SMILES) | AUC(0-t) [1, 3] [µg·h/mL] | Cmax [1, 4] [ng/mL] | Cmax [1, 5] [ng/mL] | AUC(0-t) [1, 6] [µg·h/mL] | AUC(0-inf) [1, 7] [µg·h/mL] | Tmax [1, 7] [min] | half-life [1, 7] [min] | AUC(0-inf) [1, 8] [µg·h/mL] | Tmax [1, 8] [min] | half-life [1, 8] [min] | bioavailability ([1]; female, NMRI, mouse) [%] | Cmax [2, 9] [ng/mL] | Tmax [2, 9] [min] | half-life [2, 9] [min] | AUC0-tlast [2] [µg·h/mL] | AUC0-∞ [2] [µg·h/mL] | further results
CSc1ccc(OCc2ncc([N+](=O)[O-])n2C)cc1 [Fexinidazole, 1-methyl-2-((p-(methylthio)phenoxy)methyl)-5-nitroimidazole] | 0.041 | 164 | 500 | 0.424 | 0.042 | 5 | 6 | 0.439 | 15 | 48 | 41.4 | 457 ± 179 | 50 ± 17.3 | 166 ± 75.6 |  |  | clinical signs ([1]; 1 mg/kg iv or 25 mg/kg po): No clinical signs were observed; bioavailability ([1]; female, mouse): 41%; Cmax ([1]; fexinidazole 25 mg/kg po, female NMRI mice): 500 ng/mL; AUC(0-t) [2, 9]: 1.53 ± 0.348 µg·h/mL
Cn1c([N+](=O)[O-])cnc1COc1ccc([S+](C)[O-])cc1 (stereo not shown) [Fexinidazole sulfoxide] | 1.59 | 918 | 14200 | 45 | 1.56 | 15 | 36 | 45 | 30 | 60 |  | 33600 | 50 | 259 | 161 | 197 | AUC0–24 ([1]; fexinidazole 25 mg/kg po, listed as Sulfoxide metabolite): 45.031 µg·h/mL
Cn1c([N+](=O)[O-])cnc1COc1ccc(S(C)(=O)=O)cc1 [Fexinidazole sulfone] | 7.99 | 511 |  | 96.3 |  | 120 |  | 96.3 | 240 | 102 | 48.8 | 77600 | 180 | 165 | 1050 | 1060 | Cmax ([1]; fexinidazole 1 mg/kg iv): 790.4 ng/mL; Cmax ([1]; fexinidazole 25 mg/kg po, female NMRI mice, listed as Sulfone): 13651.3 ng/mL; Cmax ([1]; fexinidazole 25 mg/kg po, female NMRI mice, listed as Sulfone metabolite): 13651 ng/mL; Cmax ([1]; fexinidazole 25 mg/kg po, female NMRI mice, listed as sulfone): 6599.6 ng/mL; AUC0–24 ([1]; fexinidazole 25 mg/kg po, listed as Sulfone metabolite): 96.286 µg·h/mL
